# Results published in patent US7998940B2, “Aptamers to von Willebrand factor and their use as thrombotic disease therapeutics” (Archemix Corp., priority 2004, dated 2011).
# Like-named read-outs stand apart in the source and are kept apart here. Oligonucleotides are written 5' to 3', each unit as a sugar letter and its base; * is a phosphorothioate linkage, no mark a phosphodiester; rarer units and linkages stand in square brackets, end groups in braces. Plain capitals give the bases only. [PEG] = polyethylene glycol spacer within the chain; [invdT] = inverted (3'-3') thymidine; d = 2'-deoxy (DNA); m = 2'-O-methyl; r = 2'-OH (RNA); f = 2'-fluoro
# Experiments:
# [1] = system: full length human vWF (SEQ ID NO 7); assay: dot blot KD determination and extent of binding, full length human vWF; conditions: for % binding @ 100 nM vWF: extent of aptamer binding at 100 nM full length human vWF; for Kd: full length human vWF, read-out: KD;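 on all read-outs here: dot blot binding of aptamers to full length human vWF across a protein titration, incubated 30 minutes at room temperature in 1x DPBS with BSA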
# [2] = molecular target: human vWF A1 domain (SEQ ID NO 5) (Homo sapiens, UniProt P04275, T1381A); assay: 3-point dot blot screen, human vWF A1 domain; type: binding; conditions: rRfY aptamers; 100 nM human vWF A1 domain; ratio of fraction bound with target to fraction bound without target
# Sequence of human vWF A1 domain (SEQ ID NO 5) (P04275 with tags, fused parts or gaps T1381A): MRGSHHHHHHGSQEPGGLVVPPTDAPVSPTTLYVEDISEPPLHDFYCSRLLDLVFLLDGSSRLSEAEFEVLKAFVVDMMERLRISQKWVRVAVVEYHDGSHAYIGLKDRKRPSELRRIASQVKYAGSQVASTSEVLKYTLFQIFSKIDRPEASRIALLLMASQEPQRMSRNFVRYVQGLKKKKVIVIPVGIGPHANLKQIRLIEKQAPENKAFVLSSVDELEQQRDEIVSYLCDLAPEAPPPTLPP
# Excerpt: (§1) When a significant positive ratio of binding of RNA in the presence of human or rabbit vWF A1 domain versus in the absence of protein was seen, the pools were cloned using the TOPO TA cloning kit (Invitrogen, Cat. #45-0641, Carlsbad, Calif.) according to the manufacturer's instructions. Round 9 and 12 pool templates were cloned and sequenced (125 total sequences), producing 48 unique clones. All unique clones were transcribed, desalted, 5-^32P end-labeled, and assayed in a 3-point dot blot screen (no protein target control, 100 nM human vWF A1 domain (SEQ ID NO 5, FIG. 3), or 100 nM rabbit vWF A1 domain (SEQ ID NO 6, FIG. 3). The data is presented in the third and fourth columns of Table 4 below as the ratio of the fraction of the aptamer bound to the nitrocellulose in the presence of the target protein to the fraction of aptamer bound in the absence of the target protein.
# (§2) When a significant positive ratio of binding of RNA in the presence of human or rabbit vWF A1 domain (SEQ ID NOS 4 and 6, respectively) versus in the absence of protein was seen, the pools were cloned using the TOPO TA cloning kit (Invitrogen Cat. #45-0641, Carlsbad, Calif.) according to the manufacturer's instructions. Round 9 and 12 pool templates were cloned and sequenced (185 total sequences), producing 78 unique clones within 3 sequence families. All unique clones were transcribed, desalted, 5-^32P end-labeled, and assayed in a 3-point dot blot screen (no protein target control, 100 nM human vWF A1 domain (SEQ ID NO 5), or 100 nM rabbit vWF A1 domain (SEQ ID NO 6). The data are presented in the third and fourth columns of Table 9 below as the ratio of the fraction of the aptamer bound to the nitrocellulose in the presence of the target protein to the fraction of aptamer bound in the absence of the target protein. Of the three sequence families, members of Family #1 and #2 and two individual, non-family aptamers, bound to both human vWF domain A1 (SEQ ID NO 5) and rabbit vWF domain A1 (SEQ ID NO 6).
# (§3) All unique clones were assayed in a 3-point dot blot screen (no protein target control, 100 nM human vWF A1 domain (SEQ ID NO 5), or 100 nM rabbit vWF A1 domain (SEQ ID NO 6). The data are presented in the third and fourth columns of Table 14 below as the ratio of the fraction of the aptamer bound to the nitrocellulose in the presence of the target protein to the fraction of aptamer bound in the absence of the target protein.
# [3] = system: rabbit vWF A1 domain (SEQ ID NO 6); assay: 3-point dot blot screen, rabbit vWF A1 domain; type: binding; conditions: rRfY aptamers; 100 nM rabbit vWF A1 domain; ratio of fraction bound with target to without
# Sequence of rabbit vWF A1 domain (SEQ ID NO 6) (as listed by the source): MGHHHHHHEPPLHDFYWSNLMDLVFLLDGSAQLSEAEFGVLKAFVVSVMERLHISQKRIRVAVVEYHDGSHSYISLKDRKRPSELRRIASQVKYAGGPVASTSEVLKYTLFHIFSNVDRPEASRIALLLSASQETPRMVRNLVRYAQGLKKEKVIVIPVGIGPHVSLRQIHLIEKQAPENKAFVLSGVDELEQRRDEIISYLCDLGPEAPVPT
# Excerpt: as §1, §2, §3
# When a significant positive ratio of binding of DNA in the presence of human or rabbit vWF A1 domain versus in the absence of protein was seen, the pools were cloned using the TOPO TA cloning kit (Invitrogen Cat. #45-0641, Carlsbad, Calif.) according to the manufacturer's instructions. Round 7 and 11 pool templates were cloned and sequenced (218 total sequences), producing 146 unique clones within 12 sequence families of which sequences from six families show vWF target binding activity. All unique clones were assayed twice in a 3-point dot blot screen (no protein target control, 20 nM full length human vWF (Calbiochem Cat. #681300, La Jolla, Calif.), or 20 nM rabbit vWF A1 domain. The data is presented in the third and fourth columns of Table 17 below as the ratio of the fraction of the aptamer bound to the nitrocellulose in the presence of the target protein to the fraction of aptamer bound in the absence of the target protein.
# [4] = Phase 1 modification, dot blot, 8 point protein titration
# [5] = Phase 3 modification, dot blot, 8 point protein titration
molecule,measurement,setting,value
dGdGdCdGTdGdCdAmGmUdGdCdCTTdCdGdGdCdCmGTmGdCdGdGTdGdCdCTdCdCmGmUmCdAdCdGdCdC-3T (dGdGdCdGdTdGdCdAmGmUdGdCdCdTdTdCdGdGdCdCmGdTmGdCdGdGdTdGdCdCdTdCdCmGmUmCdAdCdGdCdC[invdT]; aptamer) [ARC1339],% binding @ 100 nM vWF,[1]; Phase 2 modification,39%
same,Kd,[1]; Phase 2 modification,2.4 nM
ARC1224: ARC1172 with one residue replaced by 2'-O methyl residue (dGdGdCdGdTdGdCdAdGdTdGdCdCdTdTdCdGdGdCdCdGdTdGdCdGdGdTdGdCdCmUdCdCdGdTdCdAdCdGdCdC[invdT]; aptamer),% binding @ 100 nM vWF,[1]; Phase 1 modification,47%
same,Kd,[1]; [4],0.5 nM
ARC1379: ARC1361 with single phosphorothioate phosphate backbone modification (mGmCmGmUdGdCdAmGmUmGmCmCmUmUmCmGmGmCdCmGdTmGdCdGdGdTmGmCdCmUdCdC*mGmUdCmAmCmGmC[invdT]; aptamer),% binding @ 100 nM vWF,[1]; Phase 3 modification,31.3%
same,Kd,[1]; [5],10.4 nM
mCmGmUdGdCdAmGmUmGmCmCPEGmGmGmCdCmG-s-TmGdCdGdGTmGmCdCmUdCdCmGmUdCmAmCmG-3T (mCmGmUdGdCdAmGmUmGmCmC[PEG]mGmGmCdCmG*dTmGdCdGdGdTmGmCdCmUdCdCmGmUdCmAmCmG[invdT]; aptamer) [ARC1531],% binding @ 100 nM vWF,[1]; Phase 4 and 5 modification,20.0%
same,Kd,[1]; Phase 4 and 5 modification,1.5 nM
ARC1374: ARC1361 with single phosphorothioate phosphate backbone modification (mGmCmGmUdGdCdAmGmUmGmCmCmUmUmCmGmGmCdCmGdTmGdCdGdGdT*mGmCdCmUdCdCmGmUdCmAmCmGmC[invdT]; aptamer),% binding @ 100 nM vWF,[1]; Phase 3 modification,27.2%
same,Kd,[1]; [5],9.5 nM
ARC1234: ARC1172 with one residue replaced by 2'-O methyl residue (dGdGdCdGdTdGdCdAdGdTdGdCdCdTdTdCdGdGdCdCdGdTdGdCdGdGdTdGdCdCdTdCdCdGdTdCdAdCdGdCmC[invdT]; aptamer),% binding @ 100 nM vWF,[1]; Phase 1 modification,42%
same,Kd,[1]; [4],2 nM
ARC1235: ARC1172 with composite 2'-O methyl replacements in the stem regions (mGmGdCmGdTmGdCdAdGdTdGdCdCdTdTdCdGdGdCdCdGdTdGdCdGdGdTdGdCdCdTdCdCdGdTdCmAdCmGdCdC[invdT]; aptamer),% binding @ 100 nM vWF,[1]; Phase 1 modification,23%
same,Kd,[1]; [4],13 nM
ARC1194: ARC1172 with one residue replaced by 2'-O methyl residue (DNA mGdGdCdGdTdGdCdAdGdTdGdCdCdTdTdCdGdGdCdCdGdTdGdCdGdGdTdGdCdCdTdCdCdGdTdCdAdCdGdCdC[invdT]; aptamer),% binding @ 100 nM vWF,[1]; Phase 1 modification,46%
same,Kd,[1]; [4],3 nM
mGmGmCmGmU-s-dG-s-dC-s-dAmGmUmGmCmCmUmUmCmGmGmC-s-dCmG-s-TmG-s-dC-s-dG-s-dG-s-TmGmC-s-dCmU-s-dC-s-dCmGmUmCmAmCmGmCmC-3T (mGmGmCmGmU*dG*dC*dAmGmUmGmCmCmUmUmCmGmGmC*dCmG*dTmG*dC*dG*dG*dTmGmC*dCmU*dC*dCmGmUmCmAmCmGmCmC[invdT]) [ARC1345],% binding @ 100 nM vWF,[1]; Phase 2 modification,29%
same,Kd,[1]; Phase 2 modification,12.1 nM
ARC1239: ARC1172 with composite 2'-O methyl replacements in the stem regions (dGdGdCdGdTdGdCdAdGdTdGmCmCdTdTdCdGdGmCdCdGdTdGdCdGdGdTdGdCdCdTdCdCdGdTdCdAdCdGdCdC[invdT]; aptamer),% binding @ 100 nM vWF,[1]; Phase 1 modification,37%
same,Kd,[1]; [4],5 nM
ARC1211: ARC1172 with one residue replaced by 2'-O methyl residue (DNA dGdGdCdGdTdGdCdAdGdTdGdCdCdTdTdCdGmGdCdCdGdTdGdCdGdGdTdGdCdCdTdCdCdGdTdCdAdCdGdCdC[invdT]; aptamer),% binding @ 100 nM vWF,[1]; Phase 1 modification,47%
same,Kd,[1]; [4],2 nM
ARC1205: ARC1172 with one residue replaced by 2'-O methyl residue (DNA dGdGdCdGdTdGdCdAdGdTdGmCdCdTdTdCdGdGdCdCdGdTdGdCdGdGdTdGdCdCdTdCdCdGdTdCdAdCdGdCdC[invdT]; aptamer),% binding @ 100 nM vWF,[1]; Phase 1 modification,50%
same,Kd,[1]; [4],1 nM
ARC1378: ARC1361 with single phosphorothioate phosphate backbone modification (mGmCmGmUdGdCdAmGmUmGmCmCmUmUmCmGmGmCdCmGdTmGdCdGdGdTmGmCdCmUdC*dCmGmUdCmAmCmGmC[invdT]; aptamer),% binding @ 100 nM vWF,[1]; Phase 3 modification,31.1%
same,Kd,[1]; [5],9.1 nM
dGdGdCdGTdGdCdAdGTdGdCdCTTdCdGdGdCdCdGTmGdCdGdGTmGmCdCmUdCdCmGmUmCdAdCdGdCdC-3T (dGdGdCdGdTdGdCdAdGdTdGdCdCdTdTdCdGdGdCdCdGdTmGdCdGdGdTmGmCdCmUdCdCmGmUmCdAdCdGdCdC[invdT]; aptamer) [ARC1340],% binding @ 100 nM vWF,[1]; Phase 2 modification,43%
same,Kd,[1]; Phase 2 modification,7.4 nM
ARC1222: ARC1172 with one residue replaced by 2'-O methyl residue (dGdGdCdGdTdGdCdAdGdTdGdCdCdTdTdCdGdGdCdCdGdTdGdCdGdGdTdGmCdCdTdCdCdGdTdCdAdCdGdCdC[invdT]; aptamer),% binding @ 100 nM vWF,[1]; Phase 1 modification,40%
same,Kd,[1]; [4],0.9 nM
ARC1226: ARC1172 with one residue replaced by 2'-O methyl residue (dGdGdCdGdTdGdCdAdGdTdGdCdCdTdTdCdGdGdCdCdGdTdGdCdGdGdTdGdCdCdTdCmCdGdTdCdAdCdGdCdC[invdT]; aptamer),% binding @ 100 nM vWF,[1]; Phase 1 modification,25%
same,Kd,[1]; [4],12 nM
AMX201.H11: rRfY aptamer clone (nucleic acid) rGrGrArGfCrGfCrAfCfUfCrArGfCfCrAfCfCfCfUrGfUfCrGfUfCfUfUfUfUrGrGfUrArGfUfCrArGfCfCrArArArArGfCfUrArGfUfUrGrGfUfUrGfUfUfUfCrGrAfCfCfUfCfUfCfUrGfCfUrArGfC,Screen- Human/No Protein,[2],1.75
same,Screen- Rabbit/No Protein,[3],1.40
AMX201.D10: rRfY aptamer clone (nucleic acid) rGrGrArGfCrGfCrAfCfUfCrArGfCfCrAfCrAfCfUrGrArGrGfCfUrGrGrAfUrAfUfCfUrAfCrGrArGrArGrGrArArGfUrGfCfUrGfCfUfUrGrGrAfUfUfUfCrGrAfCfCfUfCfUfCfUrGfCfUrArGfC,Screen- Human/No Protein,[2],1.59
same,Screen- Rabbit/No Protein,[3],1.52
AMX201.B11: rRfY aptamer clone (nucleic acid) rGrGrArGfCrGfCrAfCfUfCrArGfCfCrAfCrAfCfCrGrArGrGfCfUrGrGrAfUrAfUfCfUrAfCrGrArGrArGrGrArArGfUrGfCfUrGfCfUfUrGrArAfUfUfUfCrGrAfCfCfUfCfUfCfUrGfCfUrArGfC,Screen- Human/No Protein,[2],1.55
same,Screen- Rabbit/No Protein,[3],1.52
AMX201.B3: rRfY aptamer clone (nucleic acid) rGrGrArGfCrGfCrAfCfUfCrArGfCfCrAfCrArGrArGfCfCfCfUrGrArGfUrGfUrAfUrGrAfUfCrGfCfCrGrArGrAfUfCfUrAfUfCrGrAfUrGfCfUfUfUfUfUfCrGrAfCfCfUfCfUfCfUrGfCfUrArGfC,Screen- Human/No Protein,[2],1.69
same,Screen- Rabbit/No Protein,[3],1.64
AMX201.H4: rRfY aptamer clone (nucleic acid) rGrGrArGfCrGfCrAfCfUfCrArGfCfCrAfCfUrArAfCrGrGfUfUrGrAfUfCfUfCrArGrGrAfCfUrArAfUrArGfUfCrArAfCrArArGrGrAfUrGfCrGfUfUfUfCrGrAfCfCfUfCfUfCfUrGfCfUrArGfC,Screen- Human/No Protein,[2],1.79
same,Screen- Rabbit/No Protein,[3],1.86
